How the values were obtained:
Type in all cases: biochemical
zHDAC10 [1] = target: T1, zHDAC10 (Danio rerio, UniProt F1QCV2); test: LC–MS steady-state kinetics
T1 construct: gene hdac10; full-length, residues 2–675
T1 sequence (F1QCV2 2-675): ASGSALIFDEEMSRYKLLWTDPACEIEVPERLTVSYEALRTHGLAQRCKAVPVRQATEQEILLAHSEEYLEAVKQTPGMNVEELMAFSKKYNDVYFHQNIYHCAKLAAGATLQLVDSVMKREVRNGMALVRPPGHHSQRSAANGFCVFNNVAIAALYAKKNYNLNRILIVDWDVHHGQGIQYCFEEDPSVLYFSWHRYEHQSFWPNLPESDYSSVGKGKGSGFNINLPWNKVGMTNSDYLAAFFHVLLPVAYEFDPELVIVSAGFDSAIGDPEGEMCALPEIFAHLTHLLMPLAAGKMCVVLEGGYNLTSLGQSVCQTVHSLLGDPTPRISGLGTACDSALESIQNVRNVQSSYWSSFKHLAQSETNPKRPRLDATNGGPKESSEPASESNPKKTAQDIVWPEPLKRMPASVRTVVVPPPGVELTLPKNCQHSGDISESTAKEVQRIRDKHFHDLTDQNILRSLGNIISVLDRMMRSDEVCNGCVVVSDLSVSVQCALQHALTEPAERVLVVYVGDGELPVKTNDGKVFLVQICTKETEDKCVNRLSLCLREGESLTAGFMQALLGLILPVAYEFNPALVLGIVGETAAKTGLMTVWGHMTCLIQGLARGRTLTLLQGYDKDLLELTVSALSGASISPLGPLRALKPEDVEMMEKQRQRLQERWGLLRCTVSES

zHDAC10 [2] = target: T1, zHDAC10; test: LC–MS deacetylase inhibition assay with N8-acetylspermidine; Ki by Cheng-Prusoff
hHDAC10 [3] = target: T2, hHDAC10 (Homo sapiens, UniProt Q969S8); test: LC–MS steady-state kinetics
T2 construct: gene HDAC10; full-length, residues 2–669, MBP fusion
T2 sequence (Q969S8 2-669): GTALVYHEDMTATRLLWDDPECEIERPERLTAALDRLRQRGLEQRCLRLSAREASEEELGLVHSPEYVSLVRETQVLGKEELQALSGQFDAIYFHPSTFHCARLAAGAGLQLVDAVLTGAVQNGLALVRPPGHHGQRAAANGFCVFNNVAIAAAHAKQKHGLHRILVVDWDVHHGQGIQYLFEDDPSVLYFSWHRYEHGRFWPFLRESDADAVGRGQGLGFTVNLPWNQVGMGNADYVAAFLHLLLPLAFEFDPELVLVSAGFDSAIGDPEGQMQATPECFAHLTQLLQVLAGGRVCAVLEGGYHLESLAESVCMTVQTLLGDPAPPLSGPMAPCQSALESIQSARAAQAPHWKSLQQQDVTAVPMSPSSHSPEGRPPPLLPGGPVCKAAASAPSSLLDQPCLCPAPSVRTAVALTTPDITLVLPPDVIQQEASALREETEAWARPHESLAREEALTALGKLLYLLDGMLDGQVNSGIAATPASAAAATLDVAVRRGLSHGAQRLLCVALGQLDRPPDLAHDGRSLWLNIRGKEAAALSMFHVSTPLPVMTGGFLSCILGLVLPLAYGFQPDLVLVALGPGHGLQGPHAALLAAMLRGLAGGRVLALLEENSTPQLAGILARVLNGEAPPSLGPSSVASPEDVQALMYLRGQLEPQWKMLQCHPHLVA

hHDAC10 [4] = target: T2, hHDAC10; test: LC–MS steady-state kinetics (kcat/KM)
zHDAC10 [5] = target: T1, zHDAC10; test: LC–MS steady-state kinetics (kcat/KM)

Row | SMILES | LC-MS steady-state kinetics (zHDAC10 [1]) | LC-MS steady-state kinetics (hHDAC10 [3]) | other results
1 | CC(=O)NCCCCCCCCN [AcDAO, N-(8-aminooctyl)acetamide] | also observed with acetylcadaverine and acetylputrescine, as well as N-(8-aminooctyl)acetamide |  | 
2 | NCCCNCCCCCC(=O)C(F)(F)F [AAT, 7-[(3-aminopropyl)amino]-1,1,1-trifluoroheptan-2-one] |  |  | Ki (zHDAC10 [2]): 0.7 ± 0.2 µM
3 | CC(=O)NCCCCCN [AcCAD, acetylcadaverine] | substantial catalytic activity was also observed with acetylcadaverine and acetylputrescine | substantial catalytic activity was also observed with acetylcadaverine and acetylputrescine | 
4 | CC(=O)NCCCCNCCCN [N^8-AcSPD, N^8-acetylspermidine] |  |  | LC-MS steady-state kinetics (kcat/KM) (hHDAC10 [4]): 2,900±200 M^−1 s^−1; LC-MS steady-state kinetics (kcat/KM) (zHDAC10 [5]): 4,600±300 M^−1 s^−1
5 | CC(=O)NCCCCN [AcPUT, acetylputrescine] | substantial catalytic activity was also observed with acetylcadaverine and acetylputrescine | substantial catalytic activity was also observed with acetylcadaverine and acetylputrescine | 
